How the values were obtained:
Akt1 = molecular target: T1, Akt1 (Homo sapiens, UniProt P31749, S473D); assay: Akt1 kinase assay, fluorescence polarization (IMAP); assay type: biochemical; conditions: Table 6, selectivity study; read-out: Akt Kinase Activity
T1 construct: The version of Akt used in these studies lacks the pleckstrin homology (PH) domain
Outline: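 His-tagged Akt1 lacking the PH domain, Thr308-prephosphorylated, 1.5 ng per reaction, with 4 μM ATP and 40 nM TAMRA-Crosstide (solution concentrations) in Tris pH 7.5/MgCl2/DTT buffer. Incubated 30 min at ambient temperature; IMAP fluorescence polarization read (544/615 nm). IC50 after subtraction of no-enzyme background.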

[1] = molecular target: T2, PKA, catalytic subunit, recombinant (Homo sapiens, UniProt P17612); assay: PKA IMAP Kinase Assay; assay type: biochemical; conditions: for Selectivity Ratio (PKA/Akt): PKA IC50 divided by Akt IC50; for IC50: Table 6, selectivity study
T2 construct: purchased Upstate 14-440
Method: The PKA Kinase assay is used to measure the selectivity of the compounds of formula I for PKA kinase as discussed below. The PKA activity of the compounds of formula I was determined using the PKA IMAP® Kinase Assay (G7096A).
Materials: • 1) Kinase Reaction Buffer (RB):—10 mM Tris-HCl, pH 7.5, 10 mM MgCl2, 0.1 mM EGTA, 0.01% Triton-X 100 (Sigma #X-100); 1 mM DTT (N.E. Biolabs #B7705S) added fresh • 2) ATP (Sigma #5394) 10 mM stock in H2O, −20° C. • 3) 20 μM working stock TAMRA Kemptide (TK. Molecular Devices #R7332): [N-Term]TMRS-Leu-Arg-Arg-Ala-Ser-Leu-Gly-OH[C-Term] • 4) PKA, catalytic subunit, recombinant (Upstate #14-440). 5 ug/25 ul lot 22361AU • 5) DMSO (Baker #9224-01) • 6) IMAP® Progressive Express Screening Kit for IPP (Molecular Devices #R8124) Includes IMAP® Progressive Beads and Binding Buffer • 7) 96-well ½ area plates, black polystyrene, Costar #3694 • 8) 96-well round bottom polypropylene plates, Costar #9667
NOTE: Protect all Tamra-Containing Reagents from Light.
• 1) Prepare the 1× Reaction Buffer (RB) by fresh addition of DTT to 1 mM • 2) For single point testing, make up compound dilution plate as follows: “96 well plates; Row Empty: empty; 84 cmpds” are added to the remaining wells at […]. • 3) For 150 determination: To column 2 of polypropylene plate add 100 ul 100% DMSO; to all other wells add 60 ul 100% DMSO. • 4) Pipet 2 ul 10 mM stock compound to column 2; mix well • 5) Serially dilute 1:3 across from column 2-11, transferring 30 ul to next well and mixing well. • 6) Leave column 12 for zero compound (control signal) • 7) For Single Point testing (10 uM final) add 1 ul 10 mM compound to 100 ul DMSO; mix; transfer 5 ul to 120 ul RB; mix; transfer 5 ul to Assay Plate • 8) For 150 determination: Make up compound RB dilution plate: 60 μl/well RB in 96-well polypropylene round bottom plate. • 9) Transfer compounds to assay plate as follows: Mix DMSO dilutions; transfer 15 μl to 60 μl RB; transfer 5 μl/well to assay plates (single points, triplicate plates), delivering carefully to the bottom of the well; repeat for each dilution up to 10 μM. • 10) To run PKA Reactions: Make up ATP/KT solution; 4 uM ATP, 200 nM KT ([…], 100 nM KTfinal) • 11) Pipet 10 μl KT/ATP to wells containing compound. • 12) Make up protein solution in RB and determine the protein concentration. • 13) Deliver 5 μl protein solution to all wells except A1-H1, delivering to the upper region of the side of the well; Add 5 μl RB to A1-H1 (these are the 0 protein background controls) • 14) Gently tap the plate to ensure all volumes get to the bottom. Cover with foil lid. • 15) Incubate RT on bench top 30 minutes. • 16) Add 60 μl IMAP® beads in IMAP® Progressive binding buffer (100% A) diluted 1:1000 • 17) Read on VICTOR™ plate reader (protocol LissieTAMRA2) with the following settings: CW lamp filter 544 nm; emission filter 615 nm. Some adjustments may be made to the plate reader protocol depending on the reader and available filters. • 18) Use XLDA to calculate IC50s.

T1 sequence (P31749 118-480 S473D limits assumed, species assumed): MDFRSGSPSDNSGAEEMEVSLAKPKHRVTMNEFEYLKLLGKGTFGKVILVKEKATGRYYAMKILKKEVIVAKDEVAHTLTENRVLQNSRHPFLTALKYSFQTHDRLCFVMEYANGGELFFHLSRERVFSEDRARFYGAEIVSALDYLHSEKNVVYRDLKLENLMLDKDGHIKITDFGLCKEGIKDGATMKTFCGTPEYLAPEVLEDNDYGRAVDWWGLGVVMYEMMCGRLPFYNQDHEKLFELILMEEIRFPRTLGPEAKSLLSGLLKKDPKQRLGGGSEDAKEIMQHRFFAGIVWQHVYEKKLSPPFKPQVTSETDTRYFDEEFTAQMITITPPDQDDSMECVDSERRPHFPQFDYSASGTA

| IC50 (Akt1) | Selectivity Ratio (PKA/Akt) [1] | IC50 [1] | SMILES |
| --- | --- | --- | --- |
| 0.162 µM | 15.93 | 2.58 µM | Cc1c[nH]c2ncnc(N3CCC(N)(CNc4ccccc4)C3)c12 (stereo not drawn) [Example 199, 3-((phenylamino)methyl)-1-(5-methyl-7H-pyrrolo[2,3-d]pyrimidin-4-yl)pyrrolidin-3-amine] |
| 0.0459 µM | 0.57 | 0.0263 µM | Cc1c[nH]c2ncnc(N3CCC(N)(CNc4ccc(Cl)cc4)CC3)c12 [BB, 4-(4-chloro(phenylamino)methyl)-1-(5-methyl-7H-pyrrolo[2,3-d]pyrimidin-4-yl)piperidin-4-amine, reference compound] |
| 0.118 µM | 2.36 | 0.279 µM | Cc1c[nH]c2ncnc(N3CCC(N)(CNc4ccc(Cl)cc4)C3)c12 (stereo not drawn) [Example 200, 3-(4-chloro(phenylamino)methyl)-1-(5-methyl-7H-pyrrolo[2,3-d]pyrimidin-4-yl)pyrrolidin-3-amine] |

— patent US20080051419A1, “AMINE DERIVATIVES USEFUL AS ANTICANCER AGENTS” (PFIZER INC., priority 2006, published 2008)
